{"source": "patent US7524811B2", "about": "“Anti-angiogenic peptides from the N-terminus of endostatin” (Children's Medical Center Corporation, priority 2003, dated 2009)", "molecules": {"B1": {"name": "human endostatin (EntreMed): recombinant human endostatin, gift from EntreMed Corporation (protein, UniProt P39060 1572-1754, looked up)", "Endostatin": "HSHRDFQPVLHLVALNSPLSGGMRGIRGADFQCFQQARAVGLAGTFRAFLSSRLQDLYSIVRRADRAAVPIVNLKDELLFPSWEALFSGSEGPLKPGARIFSFDGKDVLRHPTWPQKSVWHGSDPNGRRLTESYCETWRTEAPSATGQASSLLGGRLLGQSAASCHHAYIVLCIENSFMTASK", "modifications": "Endostatin", "notes": "recombinant human endostatin, gift from EntreMed Corporation"}}, "key": {"LLC tumors [1]": {"tested_on": "LLC tumors", "experiment": "Lewis lung carcinoma (LLC) tumor model, systemic s.c. treatment", "type": "in vivo, C57B1/6J mice", "settings": "peptide s.c. twice a day, 2.8 mg/kg/d, vs PBS", "experimental": "The murine LLC tumor model (O'Reilly et al. (1994) Cell, 79: 315-328) was used to further characterize these peptides because this tumor grows more rapidly than BxPC-3 cells, allowing for shorter treatment periods. Murine analogs of the endostatin peptides were synthesized. The only difference between the human and murine peptides was that murine P1 peptide contained 27 amino acids instead of 25 amino acids for human P1.\nControl mice were treated with PBS. In these experiments, LLC cells were implanted into the s.c. dorsa of C57B1/6J mice, and systemically treated. Peptides (mP1, mP2, mP5, and mP6) were injected (s.c.) twice a day at a dose of 2.8 mg/kg/d, whereas endostatin and PBS were administered once a day at a dose of 20 mg/kg/d.\n(§1) BxPC-3 and LLC cells were grown in cell culture as described above. […] Mice were shaved and the dorsal skin was cleaned with ethanol before tumor cell injection. A suspension of 5×10^6 tumor cells in 0.1 ml RPMI-1640 (for BxPC-3) or DMEM (for LLC) was injected subcutaneously (s.c.) into the dorsa of mice at the proximal midline. BxPC-3 cells were implanted in SCID mice and LLC in C57B1/6J mice.\nAnimals with Lewis Lung carcinoma (600-800 mm^3 tumors) were euthanized, and the skin overlying the tumor was cleaned with Betadine and ethanol. Tumor tissue was excised under aseptic conditions. A suspension of tumor cells in 0.9% normal saline was made by passage of viable tumor tissue through a sieve and a series of sequentially smaller hypodermic needles of diameter 22- to 30-gauge. The final concentration was adjusted to 1×10^7 cells/ml, and the suspension was placed on ice. The injection of tumor cells was performed as described above.\nThe mice were weighed and tumors were measured every 3-5 days in two diameters with a dial-caliper. Volumes were determined using the formula a^2×b×0.52 (where a is the shortest and b is the longest diameter). Data is represented as volume of treated tumor over control (T/C). At the completion of each experiment, the mice were euthanized with CO2 asphyxiation. Tumors were fixed in 10% buffered Formalin (Fisher Scientific, Fair Lawn, N.J.) and paraffin-embedded.\nFor treatment of tumor-bearing mice, tumor volumes were allowed to grow to approximately 100 mm^3, and mice were randomized. Treatment was performed by single bolus s.c. injections. Peptides were administered twice a day (every 12 hrs). Doses indicated for peptides were corrected for the purity of peptides (approximately 70%). For example, mice injected with 4 mg/kg/d peptide, were actually injected with 2.8 mg/kg/d after correction. The unpaired Student t-test was used for statistical analysis."}, "[2]": {"tested_on": "human pancreatic tumor cells BxPC-3", "experiment": "BxPC-3 tumor model, systemic s.c. treatment", "type": "in vivo, SCID mice", "settings": "peptide s.c. twice a day, 7 mg/kg/d; for inhibition of BxPC-3 tumor: final measurement at 28 days, n=3, vs PBS", "experimental": "These peptides were initially tested for anti-tumor activity employing the human pancreatic tumor cells BxPC-3 cells, which were implanted in the s.c. dorsa of SCID mice. For systemic treatment, human endostatin peptides, P1-P8, were administered subcutaneously (s.c.) twice a day at 7 mg/kg/d due to the high clearance rate from the mouse circulation. Full-length Fc-Endostatin, hFcES was administered subcutaneously only once per day at a dose of 20 mg/kg/d. PBS was used as a control.\nHuman BxPC-3 pancreatic adenocarcinoma and Lewis lung carcinoma (LLC) cells were grown and maintained as described earlier (Kisker et al. (2001) Cancer Res, 61:7669-7674; O'Reilly et al. (1994) Cell, 79: 315-328). For BxPC-3 tumor cell injection, cells were grown in 900-cm2 roller bottles. Human microvascular endothelial cells (HMVEC-d; Clonetics, Walkersville, Md.) were cultured in microvascular endothelial cell growth medium (EGM-2 MV; Clonetics) and maintained at 5% CO2 in a 37° C. humidified incubator. Recombinant human endostatin was a generous gift from EntreMed Corporation (Rockville, Md.) and recombinant human and murine FcEndostatin were prepared as described earlier (Bergers et al. (1999) Science, 284: 808-812). Human and murine endostatin peptides were synthesized by SynPep Corporation (Dublin, Calif.). Peptides were resuspended in PBS or 50 mM Tris, 150 mM NaCl, pH 7.5. PECAM, purified rat anti-mouse CD31, was obtained from BD Pharmingen (San Diego, Calif.) and human recombinant VEGF was obtained from the NIH (Bethesda, Md.).\nas §1, with “BxPC-3 cells were implanted in SCID mice and LLC in C57B1/6J mice.” left out\nThe mice were weighed and tumors were measured every 3-5 days in two diameters with a dial-caliper. Volumes were determined using the formula a^2×b×0.52 (where a is the shortest and b is the longest diameter). […]"}, "[3]": {"tested_on": "human microvascular endothelial cells (HMVECs)", "experiment": "VEGF-induced endothelial cell migration, modified Boyden chamber", "type": "cell-based", "settings": "VEGF 5 ng/ml; for concentration at which VEGF-induced EC migration was inhibited: 25 ng/ml peptide equimolar to 200 ng/ml endostatin", "experimental": "Endostatin peptides were tested for anti-endothelial cell migration activity. Inhibition of VEGF-induced migration of human microvascular endothelial cells (HMVECs) was determined using several doses of endostatin peptides (FIG. 5). Human peptides were used because the cells were of human origin and the migration response of the HMVECs was assayed using a modified Boyden chamber. VEGF (5 ng/ml) was used a chemotactic agent and cells were challenged with human endostatin (Entremed; EM-ES), human Fc-Endostatin (nFcES), human P1 (hP1), human P2 (hP2), human P6 (hP6), and human P1-H1/3A (hP1-H1/3A). Total migration per membrane was quantified from the capture images using Scion Image Software (National Institutes of Health) and the unpaired Student T test was used for statistical analysis.\nThe motility response of HMVEC-d cells was assayed using a modified Boyden chamber. Cells were plated in T75-cm2 flasks at 0.5×10^6 cells per flask and allowed to grow for 48 h (˜70% confluent) prior to the migration assay. To facilitate cell adhesion, the upper membrane of a transwell ([…]; Costar) was coated with fibronectin ([…]; Becton Dickinson, Bedford, Mass.) for 1 h at 37° C. Coated membranes were rinsed with PBS and allowed to air dry immediately before use. Cells were detached by trypsinization, treated with trypsinization neutralization solution (Clonetics), and resuspended at a final concentration of 1×10^6 cells/ml in serum-free endothelial basal medium (EBM; Clonetics) containing 0.1% BSA. Cells (200,000 in 0.2 ml) were then treated with 0.2 ml of EBM/BSA containing endostatin or peptides at the indicated concentrations. Cells were incubated for 20 min. at 37° C. with occasional shaking. Cells (50,000 in 100 μl) were added to the upper chamber of the transwell. EBM or EBM supplemented with VEGF (5 ng/ml) was added to the lower chamber and cells were allowed to migrate toward the bottom chamber for 4 h in a humidified incubator containing 5% CO2. Transwell filters were rinsed once with PBS and fixed and stained using a Diff-Quik staining kit (Baxter) following the manufacturer's protocol. Non-migrated cells were removed from the upper chamber with a cotton swab. Stained filters were cut out of the chamber and mounted onto slides using Permount (Fisher). The number of migrated cells was measured using microscopy (three fields from each membrane were captured using a 40x objective), and images were captured with a CCD camera using SPOT software. Total migration per membrane was quantified from the captured images using Scion Image software (National Institutes of Health). All experiments were run in triplicate. The unpaired Student t-test was used for statistical analysis."}, "LLC tumors [4]": {"tested_on": "LLC tumors", "experiment": "Lewis lung carcinoma (LLC) tumor model, systemic s.c. treatment", "type": "in vivo, C57B1/6J mice", "settings": "peptide at 14 mg/kg/d"}, "[5]": {"tested_on": "vessel density (CD31) of LLC tumors", "experiment": "Vessel density (CD31 staining) of LLC tumor sections", "type": "in vivo, C57B1/6J mice", "settings": "peptide 2.8 mg/kg/d s.c. twice a day", "experimental": "To determine the effect on angiogenesis after mP1 treatment, LLC tumors treated with mP1, mP2, and endostatin at equimolar concentration were analyzed for vessel density (CD31). […] In each case, peptides were administered twice a day s.c. and LLC tumor sections from day 13 were formalin-fixed paraffin-embedded and then stained with CD31 (PECAM). FIG. 2C show the determination of vessel density and the Y axis is expressed as % CD31/high power field (hpf).\nTo determine if Zn binding is also important for the anti-tumor property of endostatin, mP1 and mP1-H1/3A were tested using the LLC tumor model. Peptides were administered twice a day (s.c.) at a dose of 2.8 mg/kg/d. Peptide mPl inhibited LLC by 42% (p =0.031), whereas mPl-H1/3A had no effect (FIG. 3C). To determine if there was a difference in angiogenesis, vessel density (CD31) of LLC tumors was analyzed after mP1 and mP1-H1/3A treatment. […] The unpaired Student t test was used for statistical analysis.\nTumors were fixed in 10% buffered Formalin overnight at 4° C. The next day, tumors were washed three times in PBS and paraffin-embedded. Sections (5 μm) were permeabilized with 40 μg/ml proteinase K (Roche Diagnostics Corp.) in 0.2 M Tris-HCl buffer (pH 7.6) for 25 minutes at 37° C. and washed with PBS. PECAM (1:250) was incubated at 4° C. overnight. […] Vessel density (average of three fields) was determined by IPLab software. […]"}, "[6]": {"experiment": "Water solubility of peptides", "type": "physicochemical", "settings": "high concentrations, read-out: concentration at which not water soluble", "experimental": "Peptides were approximately 1/7th-1/8th the size of full length endostatin. Three cysteines, 33,165,173, were replaced by alanines (underlined in Table 1), and cysteinel35 was omitted, to prevent the formation of disulfide bonds. Two additional lysines were added at the C-terminal of hP8 to increase its solubility (double underlined). Most peptides were water soluble, except for hP2 at high concentrations (>2.5 mg/ml). Also, all peptides were approximately 70% pure. However, no difference in tumor inhibition was observed when peptides of more than 95% purity were used."}}, "note": "Several values for one entry are separate records, joined by “and”; a condition that tells them apart may be missing. Identical values can stand only once. Entries after “also recorded” stand apart in the source; their conditions may differ. No end group written: not given here."}
{"molecule": "ATAQDFQPVLHLVALNTPLSGGMRGIR [mP1-H1/3A]", "values": [{"measurement": "anti-tumor effect on LLC", "setting": "LLC tumors [1]; 2.8 mg/kg/day", "value": "no effect; also recorded: essentially not affected"}]}
{"molecule": "GSEGPLKPGARIFSFDGKDVLRHPT [hP5]", "values": [{"measurement": "inhibition of BxPC-3 tumor", "setting": "[2]", "value": 29, "unit": "%"}]}
{"molecule": "GSQGQVQPGARIFSFDGRDVLRHPA [mP5]", "values": [{"measurement": "anti-tumor effect on LLC", "setting": "LLC tumors [1]", "value": "No or insignificant activity"}]}
{"molecule": "HPAWPQKSVWHGSDPSGRRLMESY [mP6]", "values": [{"measurement": "anti-tumor effect on LLC", "setting": "LLC tumors [1]", "value": "No or insignificant activity"}]}
{"molecule": "HPTWPQKSVWHGSDPNGRRLTESY [hP6]", "values": [{"measurement": "concentration at which VEGF-induced EC migration was inhibited", "setting": "[3]", "value": "100 ng/mL and 200 ng/mL"}, {"measurement": "inhibition of EC migration", "setting": "[3]; concentrations lower than 100 ng/ml", "value": "no inhibition"}, {"measurement": "inhibition of EC migration", "setting": "[3]; several doses", "value": "inhibited EC migration but at higher concentrations than hPl"}]}
{"molecule": "HSHRDFQPVLHLVALNSPLSGGMRG [hP1]", "values": [{"measurement": "concentration at which VEGF-induced EC migration was inhibited", "setting": "[3]", "value": 25, "unit": "ng/mL"}, {"measurement": "inhibition of EC migration", "setting": "[3]; at 500 ng/ml", "value": "no inhibition"}, {"measurement": "inhibition of EC migration", "setting": "[3]; several doses", "value": "more potent in inhibiting EC migration than full-length endostatin"}, {"measurement": "inhibition of BxPC-3 tumor", "setting": "[2]", "value": 39, "unit": "%"}]}
{"molecule": "HTHQDFQPVLHLVAL [mP1-15]", "values": [{"measurement": "anti-tumor effect on LLC", "setting": "LLC tumors [1]", "value": "inhibit tumor volume"}]}
{"molecule": "HTHQDFQPVLHLVALNTPLS [mP1-20]", "values": [{"measurement": "anti-tumor effect on LLC", "setting": "LLC tumors [1]", "value": "inhibit tumor volume"}]}
{"molecule": "HTHQDFQPVLHLVALNTPLSGGMRGIR [mP1]", "values": [{"measurement": "inhibition of LLC tumor formation", "setting": "LLC tumors [4]", "value": "inhibited LLC tumor formation less than at 2.8 mg/kg/d"}, {"measurement": "inhibition of LLC tumor", "setting": "LLC tumors [1]; 2.8 mg/kg/day", "value": "44% and 42%"}]}
{"molecule": "MRGIRGA DFQAFQQARA VGLSGTFR (MRGIRGADFQAFQQARAVGLSGTFR) [mP2]", "values": [{"measurement": "inhibition of LLC tumor formation", "setting": "LLC tumors [4]", "value": "could inhibit LLC tumor formation as well as mP1 at 2.8 mg/kg/d"}, {"measurement": "anti-tumor effect on LLC", "setting": "LLC tumors [1]", "value": "No or insignificant activity"}, {"measurement": "effect on vessel density (CD31)", "setting": "[5]", "value": "no effect"}]}
{"molecule": "MRGIRGADFQAFQQARAVGLAGTFR [hP2]", "values": [{"measurement": "solubility", "setting": "[6]", "value": "> 2500", "unit": "µg/mL"}]}
{"molecule": "TFRAFLSSRLQDLYSIVRRADRAAV [hP3]", "values": [{"measurement": "anti-tumor effect on BxPC-3", "setting": "[2]; 28 days", "value": "failed to inhibit tumor growth"}]}
{"molecule": "B1", "values": [{"measurement": "concentration at which VEGF-induced EC migration was inhibited", "setting": "[3]", "value": 200, "unit": "ng/mL"}, {"measurement": "concentration of best (slightly better) inhibition of EC migration", "setting": "[3]; U-shaped response", "value": 200, "unit": "ng/mL"}, {"measurement": "inhibition of EC migration", "setting": "[3]; at 100 ng/ml", "value": "not at 100 ng/ml"}]}
